Data set [1] relates to BxPC3 pancreatic cancer cells. The data set is described as follows: MTT cytotoxicity assay, BxPC3 cells, 72 h. It counts as cell-based, human. Conditions: for IC50: Homo sapiens, BXPC-3, free compound in DMSO, MTT, 72 h; for BxPC3 SI: selectivity index = IC50 of NHDF/IC50 of BxPC3, free compound. The procedure: (§1) In vitro cell culture procedures were performed under aseptic conditions and cultures were maintained in an Innova CO-180 incubator (New Brunswick Scientific, Edison, NJ, USA). Pancreatic cancer cells, namely, BxPC-3 (primary pancreatic tumor) and AsPC-1 (from ascites of a patient with pancreatic cancer) cells, were cultured in RPMI-1640 medium supplemented with 10% heat inactivated fetal bovine serum (FBS), GlutaMAX™ and antibiotic-antimycotic. NHDF cells were cultured in alpha-MEM medium supplemented with 10% heat-inactivated FBS, GlutaMAX™ and antibiotic-antimycotic. Culture was carried out at 37 °C in a humidified atmosphere containing 5% CO2.
(§2) The effect of CA and its derivatives on cell viability was determined using a quantitative colorimetric MTT assay adapted from Mosmann. Cells were seeded in 96-well plates (5 × 10^3/well), in appropriate complete cell culture medium, for 24 h. The cells were treated with caffeic acid derivatives (in the range of 18.75–150 μM), DMSO (an equivalent volume of DMSO was used as a negative control, maximal concentration was 0.4% v/v) or liposomal formulations for 72 h. The medium containing tested chemicals was removed and MTT solution (working solution: stock 0.5 mg/mL was 10 times diluted in medium) was added to the wells, and the plates were incubated for a further 3 h. Subsequently, the MTT solution was replaced with DMSO (50 μL/well) to dissolve the purple formazan crystals. Absorbance was measured at 560 nm with a reference wavelength of 670 nm on an Asys UVM 340 Microplate Reader (Cambridge, UK). Results were expressed as the percentage of surviving cells, with respect to the control (the untreated cells) calculated as: Cell Viability (%) = (AT/AC) × 100(2) where: • AT = Absorbance of the treatment well (treated cells); • AC = Absorbance of the control well (not treated cells).
(§3) IC50 values were calculated using GraphPad Prism for Windows (GraphPad Software, La Jolla, CA, USA). The degree of selectivity of the CA derivatives against pancreatic cancer cells was expressed by the selectivity index (SI) where: SI = IC50 normal cells/IC50 cancer cells(3)
(§4) The purpose of this study was to obtain a preliminary insight into the anticancer activity of a series of caffeic acid derivatives. In order to determine the in vitro cytotoxicity of the resynthesized compounds, the activity of CA and twelve derivatives (Table 1), were screened against two human PC cell lines, BxPC3 and AsPC1, derived from primary and metastatic tumors, respectively. Since we were also interested in evaluating the degree of selectivity of the synthetized derivatives, we decided to use normal human dermal fibroblasts as control, healthy, cells. This made it possible to determine the specificity of the tested substances, in terms of their selectivity index towards pancreatic cancer cells. The cytotoxicity of the examined compounds was estimated using the classic MTT assay, which is based on the detection of the activity of oxidoreductive enzymes (mainly mitochondrial succinate dehydrogenase), which are present only in living, metabolically active cells. During the experiments, cells were incubated for 72 h in the presence of increasing concentrations of CA and the series of CA derivatives, in the range of 18.75–150 μM. […] Untreated cells were tested as the control group.
(Tetrazolium assays rely on reduction of a dye to a coloured formazan, in cell work by metabolically active cells.)

Data set [2] deals with NHDF (normal human dermal fibroblasts). The data set is described as follows: MTT cytotoxicity assay, NHDF control cells, 72 h. The note with it: free compound in DMSO. It counts as cell-based. The protocol: as §1, §2, §3, §4
For data set [3], the system named is AsPC1 pancreatic cancer cells. The data set is described as follows: MTT cytotoxicity assay, AsPC1 cells, 72 h. It counts as cell-based, human. Conditions: for IC50: Homo sapiens, ASPC1, free compound in DMSO, MTT, 72 h; for AsPC1 SI: selectivity index = IC50 of NHDF/IC50 of AsPC1, free compound. The protocol: as §1, §2, §3, §4
For data set [4], the system named is MIAPACa-2 pancreatic cancer cell line. Also noted: method as in PMID 26373299. Conditions: 25 μg/mL (87 μM), 48 h incubation; cited from earlier work.
The subject of a further data set is BxPC3 cells. Also noted: method as in PMID 18824880. Conditions: 10 μg/mL (35 μM); cited from earlier work.
In data set [5] the test system is PANC-1 pancreatic cancer cell line. On the set-up: method as in PMID 26373299. The note with it: 25 μg/mL (87 μM), 48 h incubation; cited from earlier work.
A short description of data set [6]: Compound encapsulation efficiency (EE) in liposomes. The data set is classed as physicochemical. Conditions: SPC:DSPE-PEG2000 95:5 mol/mol liposomes. The protocol: Caffeic acid derivatives encapsulated liposomes were prepared using the dry lipid film and extrusion method. A 1 mL solution of 10 mg of total lipids in chloroform (SPC:DSPE-PEG2000 95:5 mol/mol) were mixed with 1 mg of caffeic acid esters in methanol. Subsequently, solvents were removed from the samples via evaporation under a stream of nitrogen-gas to form a homogeneous lipid film on the flask wall and dried for 2 h at low pressure using a Savant Modulyo lyophilizer (Thermo Fisher Scientific, Waltham, MA, USA). Then, the lipid film was suspended by addition of 1 mL of sterile normal saline (0.9% NaCl), with mixing, until it was completely hydrated. […]
The lipid concentration was determined by the Stewart assay. The amount of (7) was determined spectrophotometrically at 290 nm and was calculated from the appropriate calibration curve according to the method described previously:EE (%) = CAf(mg/mL)/Lf(mg/mL)/CAi(mg/mL)/Li(mg/mL) × 100(1) where CAi(mg/mL)/Li(mg/mL) represents the (caffeic acid derivate)-to-lipid ratio at the point when the compound was mixed with the liposomes, and CAf(mg/mL)/Lf(mg/mL) is the final (caffeic acid derivate)-to-lipid ratio of the liposomes.

The term IC50 denotes the concentration that gives 50% inhibition. The low end stands for higher potency, the high end for lower potency. `COc1cc(/C=C/C(C)=O)ccc1O` [(12)]: the values for the 50% inhibitory concentration (IC50) in data set [1], in data set [2] and in data set [3] were 29.9 ± 5.13 µM, 51.5 ± 1.2 µM and 38 ± 6.12 µM, respectively. In data set [1], the “BxPC3 SI” value is listed as 1.72. Further, the “AsPC1 SI” value in data set [3] amounted to 1.36.
The term Inhibition denotes the relative decrease from the control value, in per cent. `O=C(/C=C/c1ccc(O)c(O)c1)OCCc1ccccc1` [CAPE, caffeic acid phenethyl ester]: the results for the “Reduction of proliferation rate” value in data set [4] and in data set [5] were 65.7% and 93.0%, respectively. Further, in the data set on BxPC3 cells, the Inhibition was 80.4%.
Consider `CC(=O)/C=C/c1ccc(O)cc1O` [(10)], for which, in data set [1], the IC50 stood at 34.1 ± 1.74 µM and the “BxPC3 SI” value worked out at 1.60. The molecule further yielded an IC50 in data set [2] of 54.6 ± 2.25 µM. In addition, in data set [3], the IC50 was found to be 35.3 ± 1.28 µM and the “AsPC1 SI” value stood at 1.54.
The matching figures for `CC(=O)/C=C/c1cccc(O)c1` [(8)]: 30.5 ± 4.55 µM, 2.61, 79.7 ± 6.3 µM, 19.2 ± 0.72 µM and 4.14.
As for `COC(=O)/C=C/c1ccc(O)c(O)c1O` [(5)], the IC50 in data set [1] was 46.6 ± 3.47 µM; in data set [2], 98.8 ± 9.56 µM; in data set [3], 42.5 ± 3.57 µM.
For `CC(=O)/C=C/c1ccc(O)c(O)c1O` [(11), 4-(2’, 3’, 4’-trihydroxyphenyl)-3 (E)-buten-2-one], in data set [1], the IC50 came to 21.7 ± 1.51 µM and the “BxPC3 SI” value worked out at 2.84. For the same molecule, the IC50 in data set [2] amounted to 61.7 ± 10.5 µM. Moreover, in data set [3], the IC50 came out at 18.4 ± 0.74 µM and the “AsPC1 SI” value was 3.36.
With `CC(=O)/C=C/c1ccc(O)cc1` [(9)], the IC50 in data set [1] worked out at 28.1 ± 3.36 µM; in data set [2] it was 59.2 ± 11.6 µM; in data set [3], 25.6 ± 2.17 µM. The “BxPC3 SI” value in data set [1] was found to be 2.11. The “AsPC1 SI” value in data set [3] stood at 2.31.
On to `CC(=O)/C=C/c1ccccc1O` [Compound (7)], for which, in data set [1], the IC50 came out at 22.4 ± 2.52 µM and the “BxPC3 SI” value was found to be 2.73. Also, in data set [2], the IC50 is 61.1 ± 1.95 µM. In data set [6], the Encapsulation efficiency was 93%. In addition, in data set [3], it took 18.7 ± 0.24 µM to reach half-maximal inhibition (IC50) and the “AsPC1 SI” value is 3.27.

The values are drawn from PMC7766656, “Evaluation of the In Vitro Cytotoxic Activity of Caffeic Acid Derivatives and Liposomal Formulation against Pancreatic Cancer Cell Lines” (Materials, 2020).
